Measured values taken from US9605013B2, “Derivatives of hemin with antibacterial and antiviral activity” (OBSCHESTVO S OGRANICHENNOI OTVETSTVENNOSTIYU …, priority 2011, dated 2017).

How the values were obtained:
[1] = test system: Vancomycin-resistant Enterococcus faecium 569; experiment: Antibacterial specific activity, twofold dilutions, visual growth evaluation; assay type: cell-based; conditions: Vancomycin-resistant E. faecium 569; 36° C., 24 hours
Method: (§1) The specific activity of compounds also was determined against bacteria strains such as Staphylococcus aureus No. 25923 ATCC (American Type Culture Collection); Staphylococcus aureus No. 100 KC; Staphylococcus epidermidis No. 533; Enterococcus faecalis No. 559; Enterococcus faecium No. 569, Staphylococcus aureus No. 5 (MRSA), Staphylococcus aureus No. 3797 (MRSA). Staphylococcus aureus was cultured on the Trypticase Soy Agar (BBL) commercially available dry medium. Enterococcus faecalis was cultured on the Columbia Agar (BBL) commercially available dry medium. These media were sterilized by autoclaving at 121° C. for 15 min. Bacterial inoculum was constant and was 5×10^5 CFU/ml (10^5 CFU/0.2 ml). For water-soluble compounds, wells from 2nd through 8th were added with the solvent (water) in an amount of 15 μL per well, then the 1st well was added with 30 μL of the stock solution of the tested compound in […] with a concentration of […], and the concentration was adjusted to 0.007×10^3 M by serial twofold dilutions. A 10-μL portion was taken from every well, and 190 μL of the bacterial culture (10^5 CFU) was added per well. For DMSO-soluble compounds, wells from 2nd through 8th were added with the solvent (DMSO) in an amount of 10 μL per well, then the 1st well was added with 20 μL of the stock solution of the tested compound in […] with a concentration of […], and the concentration was adjusted to 0.039×10^3 M by serial twofold dilutions. A 2-μL portion was taken from each well, and 198 μL of the bacterial culture (10^5 CFU) was added per well.
(§2) The control comprised wells free of tested compounds (culture growth control). In addition, purity control of nutritional media and solvents was used. Plates were incubated in a thermostat at 36° C. for 24 hours.
(§3) Culture growth was evaluated visually by comparison of how microorganisms grew in the presence of tested compounds and in the absence of them. MIC was set equal to the last dilution of a tested agent which suppressed bacterial culture growth.

[2] = test system: Staphylococcus aureus No. 3797 (MRSA); experiment: as above; assay type: cell-based; conditions: St. aur No. 3797 MRSA; 36° C., 24 hours
Method: as §1, §2, §3

[3] = test system: Staphylococcus aureus No. 100 KC; experiment: as above; assay type: cell-based; conditions: S. aureus 100 KC; 36° C., 24 hours
Method: as §1, §2, §3

[4] = test system: Staphylococcus epidermidis No. 533; experiment: as above; assay type: cell-based; conditions: S. epidermis 533; 36° C., 24 hours
Method: as §1, §2, §3

[5] = test system: Enterococcus faecalis No. 559; experiment: as above; assay type: cell-based; conditions: E. faecalis 559; 36° C., 24 hours
Method: as §1, §2, §3

Escherichia coli 4300 = experiment: as above; assay type: cell-based; conditions: E. coli 4300; 36° C., 24 hours
Method: [Worded in the source for another organism; this organism is reported under the same test.] as §1, §2, §3

[6] = test system: Staphylococcus aureus No. 25923 ATCC; experiment: as above; assay type: cell-based; conditions: S. aureus 25923; 36° C., 24 hours
Method: as §1, §2, §3

[7] = test system: Staphylococcus aureus No. 5 (MRSA); experiment: as above; assay type: cell-based; conditions: St. aur No. 5 MRSA; 36° C., 24 hours
Method: as §1, §2, §3

[8] = test system: Herpes Simplex Virus type 2 strain G (No. VR-734 ATCC); experiment: Antiviral activity, virus cytopathogenic action in Vero cells; assay type: cell-based; set-up: key: 0: CPA (cytopathogenic action) is not detected; 1: up to 25% virus-infected monolayer; from 25% to 50%; 3: from 50% to 75%; 4: from 75% to 100%; conditions: 48 hours
Method: […] used in the study were used Herpes Simplex Virus type 1 (the Collection of Microorganisms at the Scientific Research Institute of Virology, strain EC), Herpes Simplex Virus type 2 strain G (No. VR-734 ATCC), and human cytomegalovirus strain AD169 (No. VR-538 ATCC). Herpes Simplex viruses type 1 and type 2 were cultured in Vero cells. The cells were incubated in MEM Eagle growth medium (MEM, BioloT, St-Petersburg, 1.3.3) supplemented with 10% fetal bovine serum (BioloT, St-Petersburg, 1.3.12) in Sanyo MCO-15AC gas-flow thermostat (37° C., 5% CO2) (Tokyo, Japan). A seed dose was 2×10^5 cells/ml in the starting inoculum or 2×10^4 cells/well. Herpes Simplex viruses were cultured under the same conditions in the MEM medium without serum (maintenance medium). Starting viral titers were 10^7 TCID50/ml.
For DMSO-soluble preparations, stock solutions were prepared in a concentration of 10 mM in DMSO. For water-soluble preparations, a stock solution prepared had the same concentration in the MEM medium (Minimal Essential Medium) for cell cultures. To control cytotoxicity (see below), the stock solution was diluted in the medium to a concentration of 100 μM and ten-fold serial dilutions of the preparations were made in the MEM medium (for DMSO-soluble compounds—in the MEM medium comprising 3% DMSO). The following concentrations of the preparations were used in the study of […]: if toxicity was not found, the concentrations of 100 μM preparations were 100, 10 and 1 μM; if toxicity was detected, the concentrations of 100 μM preparations were 10, 1, and 0.1 μM. Acyclovir (10 μg/ml) was used for Herpes Simplex viruses of both types as a reference preparation to control the viral model validity.
To study antiviral activity, plate wells with a cell monolayer were added with the preparations in an amount of 0.1 ml/well. To compensate a reduction in the concentration of the preparations, which takes place in the following addition of viruses, twofold concentrations of compounds (i.e. 200, 20 and 2 or 20, 2 and 0.2 μM for […] concentrations of 100 μM preparations, respectively) were used, incubated for an hour and then were infected with the examined 0.1 ml/well viruses in doses 1, 10 and 100 TCID50 (50% tissue infectious dose).
The virus-specific cytogenic action was manifested in an increase in the size of cells, their rounding, and detachment from a substrate. These morphological characteristics served as their marked difference from the cells subjected to a toxic action of high concentrations of the examined preparations. The latter acquired spindle-like shape, lost contacts with neighboring cells of the monolayer, and their boundaries became more distinct.
Intensity of the virus-specific changes in the cells were semi-quantified using a 4-score system: 0—CPA (cytopathogenic action) is not detected; 1—up to 25% virus-infected monolayer; 2—from 25% to 50%; 3—from 50% to 75%; and 4—from 75% to 100%. The antiviral activity of a compound was evaluated according to their ability to reduce the manifestation of cytopathogenic action in the plate wells compared to the control values. Differences with the control values by 1 score and more were considered to be significant.

[9] = test system: Micrococcus luteus BKM Ac-2230; experiment: Antibacterial activity, serial dilutions in liquid MH medium; assay type: cell-based; conditions: for MIC: MH medium, 20 h, 37° C., 100% growth inhibition; for MBC: no colonies on agarized MH medium
Method: (§4) The antibacterial activity of the compounds was determined against strains of gram-positive bacteria such as Staphylococcus aureus 209P, Enterococcus faecalis BKM B-871, Micrococcus luteus BKM Ac-2230, Bacillus subtilis BKM B-501, and gram-negative bacteria such as Pseudomonas aeruginosa PAO1 and Escherichia coli KM MGU C-600. BKM strains were acquired from the All-Russia Collection of Microorganisms at the Institute for Biochemistry and Physiology of Microorganisms, Russian Academy of Sciences. Strain Staphylococcus aureus 209P was acquired from the Collection of Microorganisms at the Department of microbiology of the Faculty of Biology of Lomonosov Moscow State University, and Pseudomonas aeruginosa PAO1 was acquired from the Collection of Microorganisms at the Institute of Bioorganic Chemistry of the Russian Academy of Sciences.
(§5) The main parameters characterizing the antibacterial activity are the minimal inhibitory concentration (MIC) and minimal bactericidal concentration (MBC). […] MBC is the least concentration that causes the death of all cells.
(§6) MIC was quantified by inhibiting culture growth in a liquid medium with serial dilutions of compounds using a modified procedure [Amsterdam, D., 1966. “Susceptibility testing of antimicrobials in liquid media,” pp. 52-111. In Loman, V., ed. Antibiotics in laboratory medicine, 4th ed. Williams and Wilkins, Baltimore].
(§7) Bacteria were cultured and tested on an MH liquid medium (Mueller-Hinton medium: a dry extract of beef broth, 4 g/L; starch, 1.5 g/L; casein hydrolyzate, 17.5 g/L; Sigma-Fluka Catalog No. 70192) at 37° C., 100% humidity, and under stirring. Cultures (within 4 to 7 passages after thawing) in the exponential growth phase were used for tests.
(§8) All tested compounds absorb light at 595 nm, a wavelength used for evaluating bacterial culture growth. Therefore, a correction for absorption was applied in estimating the optical density of bacterial suspensions for each compound with account for its concentration in the well. Bacterial growth inhibition (GI) as percentage after 20 hours of incubating cells with compounds was derived from the optical density (A) measured in every well at a wavelength of 595 nm using the equation: GIi=[(Act−Ac0)−(Ait−Ai0)]×100/(Act−Ac0), (1) wherein the subscripts have the following meanings: i denotes the well number, c denotes a control well with bacteria whereto the tested compound is not inserted, 0 refers to the measurement taken immediately once the tested compound was inserted to the well, and t refers to the measurement taken 20 hours after the compound was inserted.
(§9) The protocol for the determination of experimental antibacterial activity of the tested compounds was as follows. A cryovial with the test strain culture in a medium with 7% DMSO stored in liquid nitrogen, was rapidly defrosted, and 1.5 mL of the fresh MH medium was inoculated with 100 μL of the cell suspension. Cells were grown for one day at 37° C. and stirred on an orbital shaker at 150 rpm. The morphologic features of the strain and the absence of contamination with foreign bacteria were verified by: (a) inoculation on an agarized (15 g/L agar) MH medium and observation of the shape and color of the grown colonies and (b) examination of characteristic morphologic features under a microscope (Mikmed-2, LOMO, Russia) equipped with a 40× objective lens. Further, the bacteria were cultured in 1 mL of the liquid MH medium at 37° C. under stirring. The cells were reseeded every day. Cell cultures were used in tests starting with 3rd reseeding and ending with 6th one.
(§10) For testing, 5 μL of a bacterial suspension in the stationary growth phase was transferred to 1 mL of a sterile MH medium and incubated until the exponential growth phase was attained (3 to 5 h, 37° C., stirring at 150 rpm). To estimate the microorganism concentration, the optical density (A) of the resulting bacterial culture was measured at a wavelength of 595 nm. […]

[10] = test system: Bacillus subtilis BKM B-501; experiment: as above; assay type: cell-based; conditions: for MIC: MH medium, 20 h, 37° C., 100% growth inhibition
Method: as §4, §5, §6, §7, §8, §9, §10

[11] = test system: Enterococcus faecalis BKM B-871; experiment: as above; assay type: cell-based; conditions: MH medium, 20 h, 37° C., 100% growth inhibition
Method: as §4, §5, §6, §7, §8, §9, §10

[12] = HSV-2, virus dose 1, concentration 0.1 μM
[13] = HSV-2, virus dose 1, concentration 1 μM
[14] = HSV-2, virus dose 1, concentration 10 μM
[15] = HSV-2, virus dose 10, concentration 0.1 μM
[16] = HSV-2, virus dose 10, concentration 1 μM
[17] = HSV-2, virus dose 10, concentration 10 μM
[18] = HSV-2, virus dose 100, concentration 0.1 μM
[19] = HSV-2, virus dose 100, concentration 1 μM
[20] = HSV-2, virus dose 100, concentration 10 μM

6,7-bis-[(Diamide N^α-L-Glycyl)-L-glutamyl]-Protohemin (IX) [XIII]
MIC [1]: >50.0 µM
MIC [2]: 50 µM
MIC [3]: 12.5 µM
MIC [4]: 12.5 µM
MIC [5]: 12.5 µM
MIC (Escherichia coli 4300): >50.0 µM
MIC [6]: 12.5 µM
MIC [7]: 83 µM
manifestation of the virus CPA [8, 12]: 1 (up to 25% virus-infected monolayer)
manifestation of the virus CPA [8, 13]: 1 (up to 25% virus-infected monolayer)
manifestation of the virus CPA [8, 14]: 0.5 scores
manifestation of the virus CPA [8, 15]: 2 (from 25% to 50%)
manifestation of the virus CPA [8, 16]: 2 (from 25% to 50%)
manifestation of the virus CPA [8, 17]: 1^1 (up to 25% virus-infected monolayer)
manifestation of the virus CPA [8, 18]: 3 (from 50% to 75%)
manifestation of the virus CPA [8, 19]: 3 (from 50% to 75%)
manifestation of the virus CPA [8, 20]: 3 (from 50% to 75%)
water solubility (Water solubility): water-soluble

6,7-bis-[(Dimethyl Ester N^α-L-Glycyl)-L-glutamyl]-Protohemin (IX) [XIV]
MIC [1]: >50.0 µM
MIC [2]: 2.6 µM
MIC [3]: 2.6 µM
MIC [4]: 1.04 µM
MIC [5]: 3.12 µM
MIC (Escherichia coli 4300): >50.0 µM
MIC [6]: 0.39 µM
MIC [7]: 3.12 µM
MIC [9]: 1.6 µM
MBC [9]: 6.3 µM
MIC [10]: 6.3 µM
MBC ([10]; no colonies on agarized MH medium): 25 µM
water solubility (Water solubility): water-insoluble

6,7-bis-[(Dimethyl Ester N^α-L-Seryl)-L-glutamyl]-Protohemin (IX)
manifestation of the virus CPA [8, 12]: 1 (up to 25% virus-infected monolayer)
manifestation of the virus CPA [8, 13]: 1 (up to 25% virus-infected monolayer)
manifestation of the virus CPA [8, 14]: 0^1
manifestation of the virus CPA [8, 15]: 2 (from 25% to 50%)
manifestation of the virus CPA [8, 16]: 2 (from 25% to 50%)
manifestation of the virus CPA [8, 17]: 1.5 scores
manifestation of the virus CPA [8, 18]: 3 (from 50% to 75%)
manifestation of the virus CPA [8, 19]: 3 (from 50% to 75%)
manifestation of the virus CPA [8, 20]: 3 (from 50% to 75%)
MIC [9]: 12.5 µM
MBC [9]: 25 µM
MIC [10]: 50 µM
MIC [11]: 50 µM
water solubility (Water solubility): water-soluble
